Results as given in ChEMBL document CHEMBL4004862, “Discovery of novel CDK8 inhibitors using multiple crystal structures in docking-based virtual screening” (Eur J Med Chem, 2017).

The compounds below were run against T1, CDK8/Cyclin C (Homo sapiens) (UniProt P49336+P24863) (assay: Inhibition of Alexa647 tracer binding to full length recombinant human His-tagged CDK8/Cyclin C expressed in baculovirus expression system at 5 uM preincubated for 20 mins followed by tracer addition measured after 60 mins by TR-FRET based Lanthascreen assay relative to control).

inhibition [%] | SMILES
-4 | Cc1ccc(-c2nc(C)cc(OCC(=O)Nc3ccc(C#N)cc3)n2)cc1
-3 | CCNc1c(NC(=O)NCc2ccc(C)cc2)c(=O)oc2ccccc12
81 | Fc1ccc(N2CCN(c3ncnc4sc5c(c34)CCCC5)CC2)cc1
99 | COc1ccc(CC(=O)N2CCN(c3ccc(NC(=O)Nc4cccc(C(F)(F)F)c4)cc3)CC2)cc1
10 | CCc1ccc(-n2c(SCc3ccccc3C)nc3[nH]ncc3c2=O)cc1
14 | O=C(Cc1ccccc1F)Nc1ccc2ncnc(N3CCCC3)c2c1
14 | O=C(Cc1ccc(NC(=O)N2CCSc3ncccc32)cc1)NCc1cccc(Cl)c1
18 | O=C(Nc1c(C(=O)c2ccccc2)oc2ccccc12)c1cc(-c2ccc3c(c2)OCCO3)on1
97 | Cc1nc(Nc2ccc(NC(=O)Nc3cccc(C(F)(F)F)c3)cc2)cc(N2CCCCC2)n1
-2 | O=C(NC1CCCc2ccccc21)C1CCN(C2=CN3C(C=C2)NNC3c2ccc(Cl)cc2)CC1 (stereo not given)
3 | NNc1cc(N2CCN(c3ccccc3F)CC2)ncn1
14 | Cc1oc2ccccc2c1C(=O)CSc1nc(O)c2c(n1)NCN2
-3 | O=C(Nc1ccc(Cl)cc1)N1CCCC(c2cccc(C(=O)N3CCC4(CC3)OCCO4)c2)C1 (stereo not given)
-1 | O=C(Nc1cccc2ccccc12)c1cccc(C2CSC(S(=O)(=O)N3CCOCC3)C2)c1 (stereo not given)
-6 | CC(=O)c1ccc(NC(=O)COc2cc(C(F)(F)F)c3c(C)nn(-c4ccc(C)cc4)c3n2)cc1
4 | COc1ccc(CNC(=O)Cn2cnc3c(C(N)=O)nsc3c2=O)cc1
0 | CN(C)c1ccc(CNC(=O)C2CCN(c3ccc4nncn4n3)CC2)cc1
75 | Cc1ccc(Cl)cc1N1CCN(c2ncnc3sc(C(=O)O)c(C)c23)CC1
0 | O=C(OCc1cc(=O)n2nc(C3CC3)sc2n1)c1ccc(NC(=O)c2cccc3ccccc23)cc1
9 | CCOC(=O)c1c(C)oc2ncnc(NCCc3ccc(OCC)cc3)c12
-6 | COc1cc(NC(=O)N2CCN(c3cc(-c4ccc(C)cc4)ncn3)CC2)cc(OC)c1
3 | O=C1Nc2ccc(F)cc2/C1=N\Nc1ccc(C(=O)N2CCCC2COc2ccc(F)cc2)cc1 (stereo not given)
13 | Cc1ccc(-n2ncc(C(C)(C)C)c2NC(=O)CN(C)C(=O)Nc2ccccc2C)c(C)c1
1 | COc1ccc(OC)c(NC(=O)Nc2ccc(Cn3cnc(-c4nc(-c5ccc(F)cc5)no4)c3)cc2)c1
10 | CC(=O)c1ccc(NC(=O)COc2cc(-c3ccccc3)nc3ccc(F)cc23)cc1
20 | COc1cccc(NC(=O)CSc2nc3ccc(NC(=O)Nc4cc(C)cc(C)c4)cc3s2)c1
95 | CC(=O)N1CCC2(CC1)CC(=O)c1ccc(OCC(=O)Nc3cccc(C(F)(F)F)c3)cc1O2
52 | Cc1c(C(=O)Nc2ccc3ccc(=O)oc3c2)nnn1-c1ccc2noc(-c3ccccc3)c2c1

inhibition [%] | SMILES
28 | Cc1cccc(N2CCN(c3ncnc4onc(C)c34)CC2)c1C
2 | CSc1cccc(NC(=O)NC2CCN(c3ccc(F)cc3)C2=O)c1 (stereo not given)
7 | Cc1ccc(NC(=O)CCc2nc3ccncc3[nH]2)cc1F
0 | CCC(=O)Nc1nc2cc(NC(=O)c3cc(-c4ccccc4)nc4c(C)cccc34)ccc2s1
3 | COc1ccc(CNC(=O)C2CCCN(c3cnc4nccnc4c3)C2)cc1 (stereo not given)
4 | Cc1ccc(Cl)cc1N1CCN(C(=O)c2noc3ncnc(N4CCCC4)c23)CC1
18 | CCCn1c(=O)oc2cc(NC(=O)Nc3cccc(C)c3)ccc21
0 | COc1ccc(-n2nc(C(=O)NCC(=O)N3CCC(Cc4ccccc4)CC3)c3ccccc3c2=O)cc1
101 | O=C(NCC1CCN(c2nsc(Cc3ccc(F)cc3)n2)CC1)Nc1ccc(Cl)c(Cl)c1
27 | CCCc1c(C(=O)Nc2ccc(NC(C)=O)cc2)nnn1-c1ccc2noc(-c3ccccc3)c2c1
0 | Cc1cc(C)c2c(n1)SCCN2C(=O)Nc1ccc(C(=O)NCc2cccc(Cl)c2)cc1
2 | Cc1ccc(-c2nccc(Nc3cccc(C(=O)NCc4ccc(C(C)C)cc4)c3)n2)cc1
1 | Cc1noc2ncnc(N3CCC(C(=O)NCCCN4CCOCC4)CC3)c12
0 | O=C(NC1C2CS(=O)(=O)CC2NN1c1ccc(F)cc1)c1ccc(C(=O)c2ccccc2)cc1 (stereo not given)
19 | Fc1ccc(-c2noc3ncnc(N4CCN(c5ccccn5)CC4)c23)cc1
5 | CCOc1ccc(NC(=O)N2CCCC(c3cccc(C(=O)Nc4cccc(Cl)c4)c3)C2)cc1 (stereo not given)
24 | CNc1nccc(N2CCC(CC(=O)NCc3nc4ccccc4n3C)CC2)n1
46 | CCc1ccc(NC(=O)c2c(O)c3ccccc3n(CC)c2=O)cc1
6 | Cc1ccc2sc(NNC(=O)c3ccc(S(=O)(=O)CN4CCc5ccccc5C4)cc3)nc2c1C
11 | CCOC(=O)Cc1ccc(NC(=O)Nc2cc3c(cc2N2CCCC2)n(CC)c(=O)n3CC)cc1
-2 | CCn1c(=O)c(=O)n(CC(=O)NCc2ccccc2)c2ccccc21
-7 | Cc1ccc(N2Cc3c(ncnc3N3CCCC(C(=O)NCc4cccc(C(F)(F)F)c4)C3)N2)cc1 (stereo not given)
80 | CC(=O)c1cccc(NC(=O)c2nnn(-c3ccc4noc(-c5ccccc5)c4c3)c2C)c1
-6 | CN1C(=O)c2ccccc2C(C(=O)Nc2ccc(S(=O)(=O)N3CCCCC3)cc2)C1c1cccs1 (stereo not given)
4 | O=C(Nc1ccc2c(c1)OCCO2)c1cccc(Nc2cc(-c3ccc(F)cc3)ncn2)c1
15 | O=C(Nc1ccco1)NC1CCN(c2ncnc3c2CCC3)C1 (stereo not given)
16 | CCOC(=O)Cc1ccc(NC(=O)NC(C(=O)N2CCc3ccccc32)c2ccccc2)cc1 (stereo not given)

SMILES | inhibition [%]
CN[C@@H]1C[C@H]2O[C@@](C)([C@@H]1OC)n1c3ccccc3c3c4c(c5c6ccccc6n2c5c31)C(=O)NC4 | 99

The compounds below were run against T1, CDK8/Cyclin C (Homo sapiens) (assay: Inhibition of Alexa647 tracer binding to full length recombinant human His-tagged CDK8/Cyclin C expressed in baculovirus expression system at 0.5 uM preincubated for 20 mins followed by tracer addition measured after 60 mins by TR-FRET based Lanthascreen assay relative to control).

inhibition [%] | SMILES
95 | COc1ccc(CC(=O)N2CCN(c3ccc(NC(=O)Nc4cccc(C(F)(F)F)c4)cc3)CC2)cc1
61 | Cc1nc(Nc2ccc(NC(=O)Nc3cccc(C(F)(F)F)c3)cc2)cc(N2CCCCC2)n1
69 | CC(=O)N1CCC2(CC1)CC(=O)c1ccc(OCC(=O)Nc3cccc(C(F)(F)F)c3)cc1O2
101 | O=C(NCC1CCN(c2nsc(Cc3ccc(F)cc3)n2)CC1)Nc1ccc(Cl)c(Cl)c1

SMILES | inhibition [%]
CN[C@@H]1C[C@H]2O[C@@](C)([C@@H]1OC)n1c3ccccc3c3c4c(c5c6ccccc6n2c5c31)C(=O)NC4 | 100

The compounds below were run against T1, CDK8/Cyclin C (Homo sapiens) (assay: Inhibition of Alexa647 tracer binding to full length recombinant human His-tagged CDK8/Cyclin C expressed in baculovirus expression system at 1 uM preincubated for 20 mins followed by tracer addition measured after 60 mins by TR-FRET based Lanthascreen assay relative to control).

inhibition [%] | SMILES
16 | CCNC(=O)c1cn(-c2ccc(SCC(=O)Nc3cccc(C(F)(F)F)c3)nn2)cn1
85 | O=C(Nc1cccc(Cl)c1)Nc1nnc(CC(=O)N2CCCC2)s1
82 | COc1ccc(C(=O)N2CCCN(c3ccc(NC(=O)Nc4cccc(C(F)(F)F)c4)cn3)CC2)cc1
5 | O=C(CSc1ccc(N2CCCC(C(=O)NC3CC3)C2)nn1)Nc1cccc(C(F)(F)F)c1 (stereo not given)
8 | C=CCNC(=O)C1CCN(C(=O)Nc2ccc(NC(=O)Nc3cccc(F)c3)cc2)CC1
5 | Cc1ccc(Nc2cc(Nc3ccc(NC(=O)Nc4cccc(F)c4)cc3)nc(C)n2)cc1
59 | Cc1cc2nc(CSc3ccc(NC(=O)Nc4cccc(C(F)(F)F)c4)cc3)cc(=O)n2o1
14 | Cc1nc(Nc2ccc(NC(=O)Nc3cccc(Cl)c3)cc2)cc(N2CCCCC2)n1
12 | NC(=O)C1CC(=O)N(c2ccc(OCC(=O)Nc3cccc(C(F)(F)F)c3)cc2)C1 (stereo not given)
100 | O=C(Nc1cccc(C(F)(F)F)c1)Nc1nnc(SCc2nc3ccccc3[nH]c2=O)s1
59 | CCc1nnc(NS(=O)(=O)c2ccc(NC(=O)Nc3ccc(Cl)c(Cl)c3)cc2)s1
4 | COc1ccc(C(=O)NCc2nnc(SCC(=O)Nc3cccc(C(F)(F)F)c3)o2)cc1OC
3 | C=CCNC(=O)C1CC(=O)N(c2ccc(OCC(=O)Nc3cccc(C(F)(F)F)c3)cc2)C1 (stereo not given)
13 | CC(=O)Nc1ccc(NC(=O)Cc2csc(NC(=O)Nc3cccc(Cl)c3)n2)cc1

Each compound was assayed against CDK8/Cyclin C (Homo sapiens, UniProt P49336) (assay: Inhibition of Alexa647 tracer binding to full length recombinant human His-tagged CDK8/Cyclin C expressed in baculovirus expression system preincubated for 20 mins followed by tracer addition measured after 60 mins by TR-FRET based Lanthascreen assay).
Sequence of CDK8/Cyclin C (P49336 whole entry): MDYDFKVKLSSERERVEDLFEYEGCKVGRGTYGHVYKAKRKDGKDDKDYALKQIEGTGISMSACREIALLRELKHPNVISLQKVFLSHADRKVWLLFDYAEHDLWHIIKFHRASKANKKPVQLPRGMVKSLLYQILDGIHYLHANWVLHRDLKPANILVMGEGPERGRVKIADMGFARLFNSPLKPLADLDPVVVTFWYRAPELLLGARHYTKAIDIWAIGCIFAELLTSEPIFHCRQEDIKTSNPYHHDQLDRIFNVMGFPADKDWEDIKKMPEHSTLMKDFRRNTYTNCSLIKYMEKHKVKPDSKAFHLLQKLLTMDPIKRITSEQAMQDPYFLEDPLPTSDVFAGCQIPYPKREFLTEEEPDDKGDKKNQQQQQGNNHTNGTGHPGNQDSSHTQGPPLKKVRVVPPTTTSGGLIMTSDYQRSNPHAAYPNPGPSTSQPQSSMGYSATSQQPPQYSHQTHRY
Sequence of CDK8/Cyclin C (P24863 whole entry, further chain): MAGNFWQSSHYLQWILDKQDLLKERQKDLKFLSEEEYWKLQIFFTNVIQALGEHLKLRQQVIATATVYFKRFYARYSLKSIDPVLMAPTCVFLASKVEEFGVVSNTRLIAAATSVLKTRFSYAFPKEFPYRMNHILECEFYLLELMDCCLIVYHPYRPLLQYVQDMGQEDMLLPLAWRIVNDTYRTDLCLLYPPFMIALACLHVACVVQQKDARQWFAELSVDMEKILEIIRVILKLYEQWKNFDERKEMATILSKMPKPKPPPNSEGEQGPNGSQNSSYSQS

IC50 [nM] | SMILES
183 | O=C(Nc1cccc(Cl)c1)Nc1nnc(CC(=O)N2CCCC2)s1
36 | COc1ccc(CC(=O)N2CCN(c3ccc(NC(=O)Nc4cccc(C(F)(F)F)c4)cc3)CC2)cc1
6.5 | O=C(NCC1CCN(c2nsc(Cc3ccc(F)cc3)n2)CC1)Nc1ccc(Cl)c(Cl)c1
9 | O=C(Nc1cccc(C(F)(F)F)c1)Nc1nnc(SCc2nc3ccccc3[nH]c2=O)s1
93 | CC(=O)c1cccc(NC(=O)c2nnn(-c3ccc4noc(-c5ccccc5)c4c3)c2C)c1

These compounds were tested against T1, CDK8/Cyclin C (Homo sapiens) (assay: Inhibition of Alexa647 tracer binding to full length recombinant human His-tagged CDK8/Cyclin C expressed in baculovirus expression system at 2.5 uM preincubated for 20 mins followed by tracer addition measured after 60 mins by TR-FRET based Lanthascreen assay relative to control).

inhibition [%] | SMILES
-2 | Cc1c(C(=O)Nc2ccc(-n3cnnn3)cc2)nnn1-c1ccc2noc(-c3ccccc3)c2c1
19 | Cc1c(C(=O)Nc2cccc(C(F)(F)F)c2)nnn1-c1ccc2noc(-c3ccc(Cl)cc3)c2c1
4 | CC(=O)Nc1ccc(NC(=O)c2nnn(-c3ccc4noc(-c5ccc(Cl)cc5)c4c3)c2C)cc1
59 | CC(=O)Nc1ccc(NC(=O)c2nnn(-c3ccc4noc(-c5ccccc5)c4c3)c2C)cc1
43 | CC(=O)Nc1ccc(NC(=O)c2ccc3noc(-c4ccc(Cl)cc4)c3c2)cc1
